Series [1] has as its system 0.6% acetic acid-induced writhing in mice. Kind of series: 0.6% acetic acid-induced writhing. The class given is in vivo, ICR mice. As to conditions: s.c. pretreatment, 25 min observation. For orientation: Writhing tests count abdominal constrictions after an irritant is injected.
The next series has as its system mice. Description: Pilot study of a larger dose. The format is in vivo. As to conditions: 32 mg/kg.
The subject of series [2] is lactic acid-depressed locomotion in mice. Description: Lactic acid-depressed locomotor activity. On the set-up: species or system ICR mice. As to conditions: mouse, in vivo.
In series [3] the test system is acetic acid-depressed nesting in mice. Kind of series: Acetic acid-depressed nesting. The format is in vivo, ICR mice. As to conditions: 60 min nesting period.
In series [4] the test system is 0.32% lactic acid-induced writhing in mice. The class given is in vivo, ICR mice. As to conditions: s.c. pretreatment, 25 min observation.
The next series addresses α1β3γ2L GABAA receptor (Rattus norvegicus, UniProt P18508+P62813, INS375LLRMFSFK). The format is cell-based. As to conditions: for peak response (potentiation of the response to GABA): α1β3γ2L, percentage of the response to GABA alone.
The target of series [5] is α5-containing GABAA receptors (with β3, γ2L) (Rattus norvegicus, UniProt P18508+P19969, INS375LLRMFSFK). The class given is cell-based. As to conditions: 0.1 μM modulator, 0.3 μM GABA.
The target in the next series is α2β3γ2L GABAA receptor (UniProt P18508+P47869, INS375LLRMFSFK). The format is cell-based, human. As to conditions: for peak response (potentiation of the response to GABA): α2β3γ2L, percentage of the response to GABA alone.
Series [6] has as its system acetic acid-depressed locomotion in mice. Description: Acetic acid-depressed locomotor activity. The format is in vivo, ICR mice. As to conditions: s.c. pretreatment, 0.6% acetic acid.
The target in the next series is α3β3γ2L GABAA receptor (Rattus norvegicus, UniProt P18508+P20236, INS375LLRMFSFK). The format is cell-based. As to conditions: for peak response (potentiation of the response to GABA): α3β3γ2L, percentage of the response to GABA alone.
Series [7] deals with α4-containing GABAA receptors (with β3, γ2L) (Rattus norvegicus, UniProt P18508+P28471, INS375LLRMFSFK). The class given is cell-based. As to conditions: 1 μM modulator, 0.3 μM GABA.
Series [8] deals with α6-containing GABAA receptors (with β3, γ2L) (Rattus norvegicus, UniProt P18508+P30191, INS375LLRMFSFK). The class given is cell-based. As to conditions: 1 μM modulator, 0.1 μM GABA.
For another series, the system named is formalin test. As to conditions: only partially effective; cited from earlier work.
In series [9] the test system is rat models of inflammatory and neuropathic pain. As to conditions: cited from earlier work.
For series [10], the system named is spontaneous locomotor activity in naïve mice. Kind of series: Baseline locomotor activity without acid. The format is in vivo, ICR mice. As to conditions: doses used for the pain studies.

Data on four molecules can be found in article PMC5686453 (ACS chemical neuroscience, 2017).

Entries after “also recorded” stand apart in the source; their conditions may differ.

Usually EC50 stands for the concentration giving half of the maximal effect. A high value points to a need for much substance.

Consider `C#Cc1ccc2c(c1)C(c1ccccc1F)=NCc1c(-c3cnco3)ncn1-2` [KRM-II-18B, 5-(8-ethynyl-6-(2-fluorophenyl)-4H-benzo[f]imidazo[1,5-a][1,4]diazepin-3-yl) oxazole], for which, in series [1], the “effect on 0.6% acetic acid-induced writhing (in words)” value was “dose-dependently decreased”. Also, the “sedation at a larger dose” value with mice is reported as “marked sedation”. The “effect on locomotor activity of lactic acid-treated mice (in words)” value in [2] was “failed to restore”. Moreover, in series [3], the “effect on the decrease in cleared zones by acetic acid (nesting, in words)” value is recorded as “failed to significantly attenuate”. The “effect on […] lactic acid-induced writhing (in words)” value in series [4] is “decreased”. The figures for the EC50 on α1β3γ2L GABAA receptor, at α2β3γ2L GABAA receptor and at α3β3γ2L GABAA receptor were 739 ± 252 nM, 261 ± 116 nM and 169 ± 39.8 nM, respectively. The “selectivity among the three subtypes (α1, α2, α3)” value at α1β3γ2L GABAA receptor (in words) was “no significant selectivity”. In addition, the “peak response (potentiation of the response to GABA)” value on α1β3γ2L GABAA receptor was determined as 410.6 ± 26.3%; at α2β3γ2L GABAA receptor, 320.0 ± 14.3%; on α3β3γ2L GABAA receptor, 383.0 ± 33.2%. In addition, the “modulation of GABA response at α5-containing receptors (in words)” value in series [5] was “significant efficacy”. Also, the “effect on locomotor activity of acetic acid-treated mice (in words)” value in series [6] is given as “failed to restore”.

In the case of `C#Cc1ccc2c(c1)C(c1ccccn1)=NCc1c(-c3cnco3)ncn1-2` [KRM-II-81, 5-(8-ethynyl-6-(pyridin-2-yl)-4H-benzo[f]imidazo[1,5-a][1,4]diazepin-3-yl) oxazole], the “effect on 0.6% acetic acid-induced writhing (in words)” value in series [1] was “dose-dependently decreased”. For the same molecule, in the series with mice, the “sedation at a larger dose” value is “marked sedation”. In addition, the “modulation of GABA response at α4-containing receptors (in words)” value in [7] is “negligible efficacy”. In addition, the “effect on locomotor activity of lactic acid-treated mice (in words)” value in [2] was “failed to restore”. For the same molecule, the “effect on the decrease in cleared zones by acetic acid (nesting, in words)” value in series [3] was “failed to significantly attenuate”. In [4], the “effect on […] lactic acid-induced writhing (in words)” value was “decreased”. In addition, the figures for the EC50 at α1β3γ2L GABAA receptor, at α2β3γ2L GABAA receptor and at α3β3γ2L GABAA receptor were 1730 ± 690 nM, 102 ± 28.5 nM and 60.9 ± 11.6 nM, respectively. Moreover, the “peak response (potentiation of the response to GABA)” value on α1β3γ2L GABAA receptor was found to be 316.9 ± 38.6%; at α2β3γ2L GABAA receptor, 350.1 ± 21.5%; at α3β3γ2L GABAA receptor, 352.2 ± 38.0%. For the same molecule, in [5], the “modulation of GABA response at α5-containing receptors (in words)” value is recorded as “much less sensitive; also recorded: negligible efficacy”. Moreover, the “selectivity on α2 subtype over α1 subtype GABAA receptors” value on α2β3γ2L GABAA receptor (from EC50 values) is given as 17 fold. In addition, the “modulation of GABA response at α6-containing receptors (in words)” value in series [8] is “negligible efficacy”. Besides, the “effect on locomotor activity of acetic acid-treated mice (in words)” value in [6] is listed as “failed to restore”. In addition, at α3β3γ2L GABAA receptor (from EC50 values), the “selectivity on α3 subtype over α1 subtype GABAA receptors” value is listed as 28 fold.

As for `CC(C)(O)c1ccc2c(c1)ncn2-c1cccc(-c2ccccc2C#N)c1` [NS11394, 3′-[5-(1-hydroxy-1-methyl-ethyl)-benzoimidazol-1-yl]-biphenyl-2-carbonitrile], the “reduction in the formalin test” value in the series with formalin test is 33%. The “antinociceptive effects in rat models of inflammatory and neuropathic pain” value in [9] is “significant antinociceptive effects”. For the same molecule, the “sedation at the antinociceptive doses” value in series [9] (rat, same doses) is on record as “does not produce sedation”.

As to `CC(=O)Nc1ccc(O)cc1` [acetaminophen, reference compound], the “effect on locomotor activity of lactic acid-treated mice (in words)” value in [2] is “dose-dependently increased”. For the same molecule, in [10], the “effect on locomotor / spontaneous activity without acid” value is listed as “did not significantly change”. In addition, the “effect on locomotor activity of acetic acid-treated mice (in words)” value in [6] was “dose-dependently increased”.
